ChEMBL document CHEMBL4823304, “Phytochemicals from the flowers of Prunus persica (L.) Batsch: Anti-adipogenic effect of mandelamide on 3T3-L1 preadipocytes” (Bioorg Med Chem Lett, 2021)
Activity calls are given as the source filed them. The rule behind the calls is not given here.

Experiments:
3T3-L1 [1] = experiment: Cytotoxicity against in mouse 3T3-L1 cells assessed as reduction in cell viability at 100 uM incubated for 24 hrs by MTT assay relative to control; format: cell-based; settings: 3t3-l1, 24 h
3T3-L1 [2] = experiment: Inhibition of preadipocyte differentiation in mouse 3T3-L1 cells assessed as lipid droplet accumulation at 100 uM incubated for 8 days by Oil Red O staining method relative to untreated control; format: functional; design: scale not given: the % may be the effect or the level left
3T3-L1 [3] = experiment: Inhibition of preadipocyte differentiation in mouse 3T3-L1 cells assessed as lipid droplet accumulation incubated for 8 days by Oil Red O staining method relative to untreated control; format: functional, cell-based; settings: 3T3-L1, 192 h
3T3-L1 [4] = experiment: Anti-adipogenic activity against mouse 3T3-L1 cells assessed as decrease in p-ERK protein expression measured after 8 days by Western blotting analysis relative to control; format: functional, cell-based; settings: time 8.0 day
3T3-L1 [5] = experiment: Anti-adipogenic activity against mouse 3T3-L1 cells assessed as decrease in ERK protein expression measured after 8 days by Western blotting analysis relative to control; format: functional, cell-based; settings: time 8.0 day
3T3-L1 [6] = experiment: Anti-adipogenic activity against mouse 3T3-L1 cells assessed as decrease in p-JNK protein expression measured after 8 days by Western blotting analysis relative to control; format: functional, cell-based; settings: time 8.0 day
3T3-L1 [7] = experiment: Anti-adipogenic activity against mouse 3T3-L1 cells assessed as decrease in JNK protein expression measured after 8 days by Western blotting analysis relative to control; format: functional, cell-based; settings: time 8.0 day
3T3-L1 [8] = experiment: Anti-adipogenic activity against mouse 3T3-L1 cells assessed as decrease in p-P38 protein expression measured after 8 days by Western blotting analysis relative to control; format: functional, cell-based; settings: time 8.0 day
3T3-L1 [9] = experiment: Anti-adipogenic activity against mouse 3T3-L1 cells assessed as decrease in P38 protein expression measured after 8 days by Western blotting analysis relative to control; format: functional, cell-based; settings: time 8.0 day
3T3-L1 [10] = experiment: Anti-adipogenic activity against mouse 3T3-L1 cells assessed as decrease in C/EBPalpha protein expression measured after 8 days by Western blotting analysis relative to control; format: functional, cell-based; settings: time 8.0 day
3T3-L1 [11] = experiment: Anti-adipogenic activity against mouse 3T3-L1 cells assessed as decrease in C/EBPbeta protein expression measured after 8 days by Western blotting analysis relative to control; format: functional, cell-based; settings: time 8.0 day
3T3-L1 [12] = experiment: Anti-adipogenic activity against mouse 3T3-L1 cells assessed as decrease in PPARgamma protein expression measured after 8 days by Western blotting analysis relative to control; format: functional, cell-based; settings: time 8.0 day
3T3-L1 [13] = experiment: Anti-adipogenic activity against mouse 3T3-L1 cells assessed as decrease in GR protein expression measured after 8 days by Western blotting analysis relative to control; format: functional, cell-based; settings: time 8.0 day

SMILES | Activity (3T3-L1 [1]) | Activity (3T3-L1 [2]; time 8 day) | Activity (3T3-L1 [2]; time 8.0 day) | also measured
O=C1C[C@@H](c2ccc(O)cc2)Oc2cc(O)cc(O)c21 [NARINGENIN] | Non-Toxic | 44.21% |  | 
O[C@@H]1[C@@H](O)[C@H](OCc2ccccc2)O[C@H](CO[C@H]2OC[C@H](O)[C@@H](O)[C@@H]2O)[C@H]1O | Non-Toxic |  | Active | 
O=C1C[C@@H](c2ccc(O)cc2)Oc2cc(O[C@@H]3O[C@H](CO)[C@@H](O)[C@H](O)[C@H]3O)cc(O)c21 [PRUNIN] | Non-Toxic |  | Active | 
O=C(O)[C@H](O[C@@H]1O[C@H](CO)[C@@H](O)[C@H](O)[C@H]1O)c1ccccc1 | Non-Toxic |  | Active | 
C[C@@H]1O[C@@H](OC[C@H]2O[C@@H](Oc3c(-c4ccc(O)cc4)oc4cc(O)cc(O)c4c3=O)[C@H](O)[C@@H](O)[C@@H]2O)[C@H](O)[C@H](O)[C@H]1O [NICOTIFLOROSIDE] | Non-Toxic |  | Active | 
COc1cc(/C=C/C(=O)O)ccc1O [FERULATE] | Non-Toxic | 58.22% |  | 
COC(=O)/C=C/c1ccc(O)c(O)c1 [METHYLCAFFEATE] | Non-Toxic | 34.67% |  | 
NC(=O)[C@H](O)c1ccccc1 | Non-Toxic | 12.23% |  | IC50 (3T3-L1 [3]): 36 µM; Activity (3T3-L1 [4]): Dose-Dependent Effect; Activity (3T3-L1 [5]): Dose-Dependent Effect; Activity (3T3-L1 [6]): Dose-Dependent Effect; Activity (3T3-L1 [7]): Dose-Dependent Effect; Activity (3T3-L1 [8]): Dose-Dependent Effect; Activity (3T3-L1 [9]): Dose-Dependent Effect; Activity (3T3-L1 [10]): Dose-Dependent Effect; Activity (3T3-L1 [11]): Dose-Dependent Effect; Activity (3T3-L1 [12]): Dose-Dependent Effect; Activity (3T3-L1 [13]): Dose-Dependent Effect
NC(=O)[C@H](O[C@@H]1O[C@H](CO)[C@@H](O)[C@H](O)[C@H]1O)c1ccccc1 | Non-Toxic |  | Active | 
O=C(/C=C/c1ccc(O)c(O)c1)O[C@@H]1C[C@](O)(C(=O)O)C[C@@H](O)[C@H]1O [CHLOROGENIC ACID] | Non-Toxic | 58.44% |  | 
O=c1c(O[C@@H]2O[C@H](CO)[C@@H](O)[C@H](O)[C@H]2O)c(-c2ccc(O)cc2)oc2cc(O)cc(O)c12 [ASTRAGALIN] | Non-Toxic |  | Active | 
C[C@@H]1O[C@@H](Oc2c(-c3ccc(O)cc3)oc3cc(O)cc(O)c3c2=O)[C@H](O)[C@H](O)[C@H]1O [AFZELIN] | Non-Toxic |  | Active | 
O=c1ccn([C@@H]2O[C@H](CO)[C@@H](O)[C@H]2O)c(=O)[nH]1 [URIDINE] | Non-Toxic |  | Active | 
NC(=O)[C@H](O[C@@H]1O[C@H](CO[C@@H]2O[C@H](CO)[C@@H](O)[C@H](O)[C@H]2O)[C@@H](O)[C@H](O)[C@H]1O)c1ccccc1 | Non-Toxic |  | Active | 
